{
  "source": "paper PMC4077824",
  "about": "“Conserved Prosegment Residues Stabilize a Late-Stage Folding Transition State of Pepsin Independently of Ground States” (PLoS ONE, 2014)",
  "origin": "cited, not measured here",
  "key": {"refolded pepsin (Rp)": {"test_system": "refolded pepsin (Rp)", "conditions": "1H-15N TROSY NMR, absence of 100 mM NaCl; ref [51]; cited from earlier work", "experimental": "Coarse-grain simulations have been used to understand the nature of non-native interactions in small, single-domain proteins lacking stable folding intermediates, [48], [49]. […] It would be challenging, but not impossible, to use similar coarse-grain approaches to model the folding of pepsinogen (370 residues). Using simulation to gain insigh ... || PS binding to Rp was measured in buffer without added 100 mM NaCl in order to obtain more accurate measurements of K d, owing to a larger change in signal in the absence of salt. Additionally, without added 100 mM NaCl it was possible to isolate the PS-Rp binding step from the catalyzed folding step thereby improving the determination of K d. […] However, ^1H-^15N TROSY NMR experiments indicated tha ..."}, "[1]": {"test_system": "pepsin (PS-Rp, PS-TS, PS-Np complexes)", "conditions": "ref [7]; cited from earlier work", "text": "It seems likely that the PS has achieved this higher affinity for the TS via a concerted optimization of side-chain packing, hydrogen bonding and electrostatics, as evidenced by polar, hydrophobic and charged groups selectively stabilizing the TS ( Fig 3A ). Furthermore, this concerted optimization likely involves both non-native and strengthened native contacts, given the range of interactions involved. In the native fold [ ..."}},
  "note": "Where no end group is shown, it is not given here.",
  "data": [
    {"sequence": "LVKVPLVRKKSLRQNLIKNGKLKDFLKTHKHNPASKYFPEAAAL [WT]", "values": [
      {"measurement": "folding of PS-Rp to native complex without 100 mM NaCl", "setting": "refolded pepsin (Rp)", "result": "does fold to the native complex"},
      {"measurement": "affinity for folding TS", "setting": "[1]", "result": "picomolar affinity"}
    ]}
  ]
}
